Laboratory results from patent publication US7144864B2, “Carboxypeptidase R inhibiting peptide” (Hidechika Okada, priority 2002, dated 2006).
“Also recorded” adds a separate entry of the source. Each block holds one compound with its values, some of them ahead of it. Bridge positions count the residues as written; N and C are the ends. Ends that are not written are not given here. Peptide text beside a SMILES is read from it.

Tests used:
[1] = target: T1, purified CPN (carboxypeptidase N) (Homo sapiens, UniProt P15169); assay: CPN kinetics: effect on purified CPN with hippuryl-L-arginine as substrate; assay type: biochemical
T1 construct: corresponding to the two large identical glycosylated subunits and the two smaller active subunits; from tissue
T1 sequence (P15169 21-458): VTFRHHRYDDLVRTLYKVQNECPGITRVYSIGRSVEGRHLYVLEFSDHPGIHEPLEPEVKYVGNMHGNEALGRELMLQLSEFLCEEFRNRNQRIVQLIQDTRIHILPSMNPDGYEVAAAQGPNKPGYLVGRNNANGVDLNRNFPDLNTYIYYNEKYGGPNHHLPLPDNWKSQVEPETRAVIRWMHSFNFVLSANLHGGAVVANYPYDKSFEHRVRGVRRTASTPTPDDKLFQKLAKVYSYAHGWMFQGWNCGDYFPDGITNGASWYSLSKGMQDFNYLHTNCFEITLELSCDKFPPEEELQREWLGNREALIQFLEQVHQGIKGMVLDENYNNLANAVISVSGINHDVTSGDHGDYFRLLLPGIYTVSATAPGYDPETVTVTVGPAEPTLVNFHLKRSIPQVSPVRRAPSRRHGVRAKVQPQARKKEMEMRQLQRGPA
T1 sequence (P22792 22-545 partner): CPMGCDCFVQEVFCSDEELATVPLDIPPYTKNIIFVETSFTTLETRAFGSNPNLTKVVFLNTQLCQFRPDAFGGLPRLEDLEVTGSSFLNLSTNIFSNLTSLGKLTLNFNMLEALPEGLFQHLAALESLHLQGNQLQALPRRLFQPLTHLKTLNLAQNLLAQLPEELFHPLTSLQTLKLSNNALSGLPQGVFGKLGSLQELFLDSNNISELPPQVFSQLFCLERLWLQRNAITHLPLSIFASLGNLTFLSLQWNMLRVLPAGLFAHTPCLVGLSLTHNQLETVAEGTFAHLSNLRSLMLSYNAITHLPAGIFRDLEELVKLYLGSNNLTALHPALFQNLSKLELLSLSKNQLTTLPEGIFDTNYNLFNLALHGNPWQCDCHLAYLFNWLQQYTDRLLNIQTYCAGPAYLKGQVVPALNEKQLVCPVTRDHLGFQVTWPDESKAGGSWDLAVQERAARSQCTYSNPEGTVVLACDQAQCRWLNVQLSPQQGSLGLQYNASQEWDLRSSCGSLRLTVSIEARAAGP
Description: (§1) ProCPR was purified to homogeneity as previously described. […] CPN was purified to homogeneity as previously described. The enzyme gave three bands on SDS-PAGE at 83 kDa, 53 kDa and 50 kDa corresponding to the two large identical glycosylated subunits and the two smaller active subunits, respectively.
The effect of CPI-2KR on purified CPN was determined using hippuryl-L-arginine as the substrate. Guanidinoethylmercaptosuccinic acid (GEMSA) was used as a positive control. CPI-2KR ([…]), GEMSA ([…]) or Tris-HCl buffer (50 mM; pH 7.5) were added to CPN (10 mg/ml) at a 1:7 ratio. Identical conditions to those used for the CPR kinetics experiments were subsequently applied.

CPR = target: T2, CPR (Homo sapiens, UniProt Q96IY4); details: cited from earlier work
T2 sequence (Q96IY4 115-423): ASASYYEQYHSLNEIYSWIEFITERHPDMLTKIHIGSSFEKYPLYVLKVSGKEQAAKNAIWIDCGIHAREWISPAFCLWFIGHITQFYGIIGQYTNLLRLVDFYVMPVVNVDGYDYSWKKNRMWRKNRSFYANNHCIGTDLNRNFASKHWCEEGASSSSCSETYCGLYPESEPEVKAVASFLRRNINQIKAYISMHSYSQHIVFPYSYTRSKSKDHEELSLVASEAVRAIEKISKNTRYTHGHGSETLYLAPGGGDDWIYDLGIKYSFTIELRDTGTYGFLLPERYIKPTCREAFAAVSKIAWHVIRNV

[2] = target: T3, purified CPR (carboxypeptidase R) (Homo sapiens, UniProt Q96IY4); assay: CPR kinetics: inhibition of CPR-catalysed hydrolysis of hippuryl-L-arginine; assay type: biochemical
T3 construct: from tissue
T3 sequence (Q96IY4 115-423): T2 sequence (Q96IY4 115-423)
Description: as §1
The activity of the CPR inhibitors was determined against purified CPR using hippuryl-L-arginine as the substrate. The peptides PCI-2K-R, CPI-2KR, PCI (500, 250/125/62.5, 50 mg/ml, respectively) or Tris-HCl buffer (50 mM; pH 7.5) were added to active CPR (40–320 mg/ml) at a 1:7 ratio. After thorough mixing, […] was incubated with various concentrations of hippuryl-L-arginine (1.2–6.0 mM), for 15 minutes at 37° C. The reaction was stopped with the addition of sodium phosphate buffer ([…]; 0.25 M), immediately followed by 3% cyanuric chloride in 1,4-dioxane ([…]). After mixing well, the generation of hippuric acid was determined by measuring the OD at 405 nm on a SpectraMAX 250 Microplate Spectrophotometer (Molecular Device Corporation, Sunnyvale, Calif., USA). Hippuric acid (0–2.0 mM) in Tris buffer was used as the standard.
A kinetics analysis of the CPR-catalysed hydrolysis of hippuryl-L-arginine in the absence and presence of inhibitory molecules was performed. The Lineweaver-Burk reciprocal plot, based on rearrangement of the Henri-Michaelis-Menten equation into a linear form, was applied:
[formula] where v (in mM sec^−1) is the instantaneous or initial velocity, [S] (mM) is the substrate concentration, Km(mM)is equivalent to the substrate concentration that yields half-maximal velocity and Vmax(mM sec^−1) is the maximum velocity. For competitive inhibition, where the inhibitor competes with the substrate for binding to the enzyme, the following mechanism was assumed: where
In competitive inhibition, the apparent Vmax is not affected with increasing inhibitor concentrations because once substrate binds the reaction proceeds normally (i.e. Vmax depends only on maximum ES complex concentration, which only depends on the total amount of enzyme present) However, the apparent Km increases (i.e. a higher substrate concentration is required for a given velocity) by a factor of [1+([I]/Ki)].
[formula] where Kmapp is the apparent Km for a given inhibitor concentration.
The Dixon plot (1/v versus [I] in the presence of different concentrations of substrate) provides a more diagnostic way of identifying the type of inhibition and determining the Ki: […]

[3] = system: TM-induced retardation of t-PA-induced fibrinolysis; assay: TM-induced retardation of t-PA-induced fibrinolysis in human plasma (clot lysis); assay type: biochemical
Description: Human plasma was obtained by centrifugation of citrated blood at 3000 g for 15 minutes at room temperature. In a 96-well microtitre plate, […] of a thrombin/calcium mix [50 ml calcium (CaCl Q; 1 M), […] of thrombin (T; 500 U/ml) and 430 ml of Tris buffer (50 mM, pH 7.5)] was added followed by 10 ml of thrombomodulin (TM; final concentration 8 nM). Subsequently, 10 ml of peptide solution in Tris buffer (16 mg/ml […]), Tris buffer or PCI (50 mg/ml) were added. After the addition of 50 ml of a t-PA/plasma mix [[…] of t-PA (130 mg/ml) mixed with 1 ml of pre-warmed citrated plasma (37° C. for 5 minutes) ] the plate was immediately read at 420 nm every 5 minutes for 2 hours on a SpectraMAX 250 Microplate Spectrophotometer (Molecular Device Corporation, Sunnyvale, Calif., USA). Lysis time was defined as the time required for the absorbance to reach half the difference between the plateau reached after clotting and baseline achieved at clot lysis.

Compound: N=C(N)NCCSC(CC(=O)O)C(=O)O (centres unmarked) [GEMSA, guanidinoethylmercaptosuccinic acid]
inhibitory activity against CPN ([1]; at 425 nM): inhibited
inhibitory activity against CPN ([1]; at 2.1 mM): strong inhibitory activity
concentration at which CPR is inhibited (literature [40]) (CPR): 18 mM

Compound: PCI-2K: PCI-derived peptide containing the two lysine residues, SEQ ID NO: 1 (NKPCKTHDD)
inhibitory activity against CPR (in words) [2]: no activity was observed

Compound: CPI-2KR-cyclic: cyclised CPI-2KR via N- and C-terminal cysteine residues, SEQ ID NO: 3 (CKPAKNARC; disulfide 1-9)
effect on TM-induced retardation of t-PA-induced fibrinolysis (in words) [3]: dramatic loss of inhibitory activity

The next lines start with results.

inhibitory activity against CPR (in words) [2]: no activity was observed
Compound: PCI-R: PCI-derived peptide containing the arginine residue, SEQ ID NO: 2 (QACWNSART)

Ki, fold higher than that of PCI [2]: 6 fold
binding affinity for CPR, fold stronger than PCI-2K-R [2]: ~46 fold
inhibitory activity against CPR (in words) [2]: competitive inhibitor
inhibitory activity against CPN ([1]; at 506 nM): did not exhibit any inhibitory activity
Compound: C[C@H](NC(=O)[C@H](CC(N)=O)NC(=O)[C@H](CCCCN)NC(=O)[C@H](C)NC(=O)[C@@H]1CCCN1C(=O)[C@H](CCCCN)NC(=O)[C@@H](N)CS)C(=O)N[C@@H](CCCNC(=N)N)C(=O)N[C@@H](CS)C(N)=O [CPI-2KR] (H-CKPAKNARC-NH2; N-terminus assumed)
effect on TM-induced retardation of t-PA-induced fibrinolysis (in words) [3]: synergistically accelerated fibrinolysis; also recorded: dose-responsive inhibition
effective inhibitory concentration, fold higher than that of PCI [3]: 10 fold
effective inhibitory concentration on TM-induced retardation of t-PA-induced fibrinolysis ([3]; TM 8 nM): 126 nM

inhibitory activity against CPR (in words) [2]: does not inhibit
Compound: tetrapeptide C-terminal fragment of PCI: tetrapeptide C-terminal fragment of PCI (PYVG)

Km ([2]; hippuryl-L-arginine substrate, Lineweaver-Burke, read-out: Km of CPR in the presence of the inhibitor): 12.3 mM
Compound: PCI: small 39-residue protein (MW 4295 Da), potato carboxypeptidase inhibitor, SEQ ID NO: 4 (QQHADPICNKPCKTHDDCSGAWFCQACWNSARTCGPYVG) [reference compound]
effect on TM-induced retardation of t-PA-induced fibrinolysis (in words) [3]: permitting fibrinolysis to proceed
Ki (CPR; read-out: Ki against CPR (literature)): 0.4 nM
